Consider 17 compounds from patent US20250134890A1, “ANTIMALARIAL HEXAHYDROPYRIMIDINE ANALOGUES” (UCB BIOPHARMA SRL, priority 2022, published 2025).

Where a name gives a salt, the structure may show the parent alone.

As usually defined, the IC50 is the concentration that inhibits the measured activity by half.

The first assay has as its system Plasmodium falciparum: 3D7 strain. The assay is described as follows: P. falciparum 3D7 asexual blood stage assay (SYBR green readout). It is filed as cell-based. Conditions: P. falciparum 3D7 in human erythrocytes, 72 h incubation, SYBR green fluorescence; hydrochloride. The text has this: The compounds of the present invention are potent inhibitors of the growth and propagation of the Plasmodium falciparum parasite in human blood.
The assay used to measure the effect of test compounds on a bloodstream stage of Plasmodium falciparum: 3D7 strain employs SYBR green as the readout. This is a dye that binds to double stranded deoxyribonucleic acid (DNA) with a resulting increase in fluorescence, allowing detection of P. falciparum DNA in infected erythrocytes, and thereby providing a measure of parasite growth and propagation.
Erythrocytes (A+blood) were prepared for both parasite culture and assay by washing 4 times with incomplete media (15.9 g RPMI 1640 (25 mM HEPES, L-glutamine), 1 g NaHCO3, 2 g glucose, 400 μL gentacin (500 mg/mL), 2 mL hypoxanthine solution (13.6 g/L in 0.1M NaOH pH 7.3) in 1 litre of media). The cells were centrifuged at 1800 g for 5 minutes, before decanting the supernatant and re-suspending in fresh incomplete media. On the final wash, the cells were re-suspended in complete media (incomplete media with 5 g/L AlbumaxII), and centrifuged at 1800 g for 3 minutes. This cell sediment was treated as 100% haematocrit.
P. falciparum 3D7 was cultured in erythrocytes at 5% haematocrit in complete media at 37° C. (1% O2, 3% CO2, balance N2). Cultures were split on a weekly basis to achieve a 1% parasitaemia in erythrocites at 5% haematocrit in fresh media. Culture media is replaced by fresh media every other day (2 times during the week).
On day 1, test compounds were added to assay plates using Echo dispensing technology ([…] and 20 points titration). 50 nL of each compound dilution was added to 50 μL of culture (5% haematocrit, 0.5% parasitaemia) and incubated for 72 h at 37° C. (1% O2, 3% CO2, balance N2). Final concentrations of test compounds ranged from 50,000 nM to 15 nM, in […].
On day 4, 10 μL SYBR green (Invitrogen S7563 supplied as 10,000×concentrate in DMSO) pre-diluted to 3×concentrate with Lysis buffer (20 mM Tris pH 7.9, 5% EDTA, 0.16% w/v, 1.6% TX100 v/v) was added to the cultures and incubated in the dark, overnight, at room temperature.
On day 5, fluorescent signal was measured using a BioTek plate reader (excitation 485 nm, emission 528 nm). All data were processed using IDBS ActivityBase. Raw data were converted into percent inhibition through linear regression by setting the high inhibition control (mefloquine) as 100% and the no inhibition control (DMSO) as 0%. Quality control criteria for passing plates were as follows: Z′>0.5, S:B>3, % CV(no inhibition control)<15. The formula used to calculate Z′ is: […]
All EC50 curve fitting was undertaken using the following bi-phasic two site dose response using XLfit model 300 (IDBS):
where A=100 minus the top of the upper curve 1 and the bottom of lower curve; B=Hill slope; log(C)=IC50 concentration at lower site; log(D)=IC50 concentration at upper site; x=inhibitor concentration; and y=% inhibition.
In the case of `C[C@H]1C[C@@H](N2C(=N)N[C@](C)(c3cccc(-c4cccc(C(O)C(F)F)c4)c3Cl)CC2=O)CCO1` (single isomer, unassigned) [Example 26, (6S)-6-(2-Chloro-3-{3-[(1S*)-2,2-difluoro-1-hydroxyethyl]phenyl}-phenyl)-2-imino-6-methyl-3-[(2S,4S)-2-methyltetrahydropyran-4-yl]hexahydropyrimidin-4-one hydrochloride], the 50% inhibitory concentration (IC50) worked out at 55 nM.

Still in this assay, the particulars now being: Plasmodium falciparum, 3D7, Erythrocyte, 72 h, P. falciparum 3D7 in human erythrocytes, 72 h incubation, SYBR green fluorescence.
`CO[C@@H]1C[C@H](N2C(=N)N[C@](C)(c3cccc(-c4ccc(N=S(C)(C)=O)cc4F)c3Cl)CC2=O)CCC1(F)F` (relative stereo) [Example 11, (6S)-6-[2-Chloro-3-(4-{[(dimethyl)-(oxo)-λ^6-sulfanylidene]amino}-2-fluorophenyl)phenyl]-3-[(1R*,3R*)-4,4-difluoro-3-methoxycyclohexyl]-2-imino-6-methylhexahydropyrimidin-4-one hydrochloride] displayed an IC50 of 367 nM.
Still for that read-out and setting: in the case of `C[C@H]1C[C@@H](N2C(=N)N[C@](C)(c3cccc(-c4cn(CC(F)(F)F)nn4)c3Cl)CC2=O)CCO1` [Example 110, (6S)-6-{2-Chloro-3-[1-(2,2,2-trifluoroethyl)-1,2,3-triazol-4-yl]-phenyl}-2-imino-6-methyl-3-[(2S,4S)-2-methyltetrahydropyran-4-yl]hexahydropyrimidin-4-one hydrochloride] it was 13 nM; in that of `C[C@H]1C[C@@H](N2C(=N)N[C@](C)(c3cccc(-c4cccc(C#N)c4)c3Cl)CC2=O)CCO1` [Example 40, 3-(2-Chloro-3-{(4S)-2-imino-4-methyl-1-[(2S,4S)-2-methyl-tetrahydropyran-4-yl]-6-oxo-hexahydropyrimidin-4-yl}phenyl)-benzonitrile trifluoroacetic acid salt], 50 nM.
Same read-out and setting: in the case of `C[C@H]1C[C@@H](N2C(=N)N[C@](C)(c3cccc(-c4cc(F)cc(F)c4)c3Cl)CC2=O)CCO1` [Example 44, (6S)-6-[2-Chloro-3-(3,5-difluoro-phenyl)phenyl]-2-imino-6-methyl-3-[(2S,4S)-2-methyltetrahydro-pyran-4-yl]hexahydropyrimidin-4-one trifluoroacetic acid salt] it was 103 nM; in that of `C[C@H]1C[C@@H](N2C(=N)N[C@](C)(c3cccc(-c4c(F)cccc4F)c3Cl)CC2=O)CCO1` [Example 47, (6S)-6-[2-Chloro-3-(2,6-difluoro-phenyl)phenyl]-2-imino-6-methyl-3-[(2S,4S)-2-methyltetrahydro-pyran-4-yl]hexahydropyrimidin-4-one trifluoroacetic acid salt], 44 nM.
Still for that read-out and setting: in the case of `C[C@H]1C[C@@H](N2C(=N)N[C@](C)(c3cccc(-c4cccc(-c5ccn[nH]5)c4)c3Cl)CC2=O)CCO1` [Example 53, (6S)-6-{2-Chloro-3-[3-(1H-pyrazol-5-yl)phenyl]phenyl}-2-imino-6-methyl-3-[(2S,4S)-2-methyl-tetrahydropyran-4-yl]hexahydro-pyrimidin-4-one trifluoroacetic acid salt] it was 25 nM; in that of `C[C@H]1C[C@@H](N2C(=N)N[C@](C)(c3cccc(-c4cn(Cc5ccccc5)nn4)c3Cl)CC2=O)CCO1` [Example 124, (6S)-6-[3-(1-Benzyl-1,2,3-triazol-4-yl)-2-chlorophenyl]-2-imino-6-methyl-3-[(2S,4S)-2-methyl-tetrahydropyran-4-yl]hexahydro-pyrimidin-4-one trifluoroacetic acid salt], 216 nM; in that of `C[C@@]1(c2cccc(-c3cccc(Cl)c3)c2Cl)CC(=O)N([C@@H]2CCOC[C@H]2O)C(=N)N1` (relative stereo) [Example 96, (6S)-6-[2-Chloro-3-(3-chloro-phenyl)phenyl]-3-[(3S*,4R*)-3-hydroxytetrahydropyran-4-yl]-2-imino-6-methylhexahydro-pyrimidin-4-one hydrochloride], 1430 nM.
The compound `C[C@H]1C[C@@H](N2C(=N)N[C@](C)(c3cccc(-c4ccc(C#N)cc4)c3Cl)CC2=O)CCO1` [Example 60, 4-(2-Chloro-3-{(4S)-2-imino-4-methyl-1-[(2S,4S)-2-methyl-tetrahydropyran-4-yl]-6-oxo-hexahydropyrimidin-4-yl}phenyl)-benzonitrile trifluoroacetic acid salt] displayed an IC50 of 297 nM.
Compound `C[C@@]1(c2cccc(-c3cccc(Cl)c3)c2Cl)CC(=O)N([C@@H]2CCC(F)(F)[C@H](O)C2)C(=N)N1` (relative stereo) [Example 22, (S)-6-[2,3′-Dichloro(1,1′-biphenyl)-3-yl]-3-[(1R*,3R*)-4,4-difluoro-3-hydroxycyclohexyl]-2-imino-6-methyltetrahydropyrimidin-4(1H)-one trifluoroacetic acid salt] came in with a half-maximal inhibitory concentration (IC50) of 154 nM.
Same read-out and setting: then `C[C@@]1(c2cccc(-c3cn(-c4cccc(F)c4)nn3)c2Cl)CC(=O)N([C@H]2CCC(F)(F)[C@@H](O)C2)C(=N)N1` (relative stereo) [Example 108, (6S)-6-{2-Chloro-3-[1-(3-fluoro-phenyl)-1,2,3-triazol-4-yl]phenyl}-3-[(1S*,3S*)-4,4-difluoro-3-hydroxycyclohexyl]-2-imino-6-methylhexahydropyrimidin-4-one hydrochloride], with 325 nM; and `C[C@H]1C[C@@H](N2C(=N)N[C@](C)(c3cccc(-c4cncnc4)c3Cl)CC2=O)CCO1` [Example 41, (6S)-6-[2-Chloro-3-(pyrimidin-5-yl)phenyl]-2-imino-6-methyl-3-[(2S,4S)-2-methyltetrahydropyran-4-yl]hexahydropyrimidin-4-one trifluoroacetic acid salt], with 145 nM; and `C[C@H]1C[C@@H](N2C(=N)N[C@](C)(c3cccc(-c4ccc(Cl)cc4Cl)c3Cl)CC2=O)CCO1` [Example 16, (6S)-6-[2-Chloro-3-(2,4-dichloro-phenyl)phenyl]-2-imino-6-methyl-3-[(2S,4S)-2-methyltetrahydro-pyran-4-yl]hexahydropyrimidin-4-one trifluoroacetic acid salt], with 66 nM.
`C[C@H]1C[C@@H](N2C(=N)N[C@](C)(c3cccc(-c4cccc(C(O)C(F)F)c4)c3Cl)CC2=O)CCO1` (single isomer, unassigned) [Example 25, (6S)-6-(2-Chloro-3-{3-[(1R*)-2,2-difluoro-1-hydroxyethyl]phenyl}-phenyl)-2-imino-6-methyl-3-[(2S,4S)-2-methyltetrahydropyran-4-yl]hexahydropyrimidin-4-one hydrochloride] came in with an IC50 of 38 nM.
With `COc1cncc(-c2cccc([C@]3(C)CC(=O)N([C@H]4CCO[C@@H](C)C4)C(=N)N3)c2Cl)c1` [Example 58, (6S)-6-[2-Chloro-3-(5-methoxy-pyridin-3-yl)phenyl]-2-imino-6-methyl-3-[(2S,4S)-2-methyl-tetrahydropyran-4-yl]hexahydro-pyrimidin-4-one trifluoroacetic acid salt], the half-inhibitory concentration (IC50) stood at 124 nM.

The assay is the same for the next values; noted with them: Plasmodium falciparum, Erythrocyte; P. falciparum 3D7 in human erythrocytes, 72 h incubation, SYBR green fluorescence; read-out: IC50.
Regarding `C[C@@H]1C[C@@H](N2C(=N)N[C@](C)(c3cccc(-c4ccc(OC(F)F)nc4)c3Cl)CC2=O)CCS1(=O)=O` (relative stereo) [Example 72, (6S)-6-{2-Chloro-3-[6-(difluoro-methoxy)pyridin-3-yl|phenyl}-2-imino-6-methyl-3-[(2R*,4S*)-2-methyl-1,1-dioxothian-4-yl]-hexahydropyrimidin-4-one hydrochloride], the IC50 amounted to 913 nM.
